Measurements as given in patent publication US8106075B2, “Insecticides” (Syngenta Crop Protection, Inc., priority 2004, dated 2012).

Legend:
Diabrotica balteata = assay: Example B2: activity against Diabrotica balteata, sprayed maize seedlings; settings: in Zea mays, 144 h, read-out: percentage reduction in the population (% activity)
Spodoptera littoralis = assay: B10a: Systemic Insecticide Test for Spodoptera littoralis (cotton leafworm); assay type: in vivo; settings: systemic via maize seedlings, 1st instar larvae
Description: […] Seedlings are allowed to grow for six days. Subsequently leaves are cut and placed in a Petri dish (5 cm diameter), inoculated with twelve to fifteen 1st instar S. littoralis larvae and incubated for four days in a growth chamber (25° C., 50% r.h., 18:6 L:D photo period). Number of alive insects are counted and percentage of dead calculated. Tests were conducted with one replicate.

Plutella xylostella = assay: B10c: Insecticide Test for Plutella xylostella (diamond back moth); assay type: in vivo; settings: sprayed Chinese cabbage leaf disks, L3 larvae
Description: Chinese cabbage plants were sprayed with insecticide at 3, 0.8, 0.2 and 0.05 ppm. Five cm diameter leaf disks were cut and placed in a Petri dish containing 6 ml agar (0.8%). Five P. xylostella larvae L3 were introduced into Petri dishes and kept at 26±2° C., 50±10% r.h. in a dark room (two replicates per treatment). […]

Heliothis virescens = assay: B10b: Insecticide Test for Heliothis virescens (tobacco budworm); assay type: in vivo; settings: for Percent larvae showing growth reduction (compared to control): eggs on artificial diet topically treated, one week; for mortality at 0.05 ppm / mortality at 0.2 ppm / mortality at 0.8 ppm / mortality at 3 ppm: Heliothis virescens, topical, 168 h, read-out: Percent larvae mortality
Description: 50-60 newly laid H. virescens eggs were placed on artificial diet in Petri dishes (5 cm diameter) and topically treated with 0.8 ml solution of compounds at the following rates: 3, 0.8, 0.2, 0.05. Petri dishes are maintained at 26±2° C., 50±10% r.h. in a dark room and assessment conducted one week after application (two replicates/treatment). Larvae mortality and effects on larvae growth were compared to the control.

SMILES	inhibition at 400 ppm (Diabrotica balteata) [%]	Death rate (%) after 4 days (Spodoptera littoralis; 0.2 ppm) [%]	Death rate (%) after 4 days (Spodoptera littoralis; 0.8 ppm) [%]	Death rate (%) after 4 days (Spodoptera littoralis; 3 ppm) [%]	Death rate (%) (Plutella xylostella; 0.05 ppm)	Death rate (%) (Plutella xylostella; 0.2 ppm)	Death rate (%) (Plutella xylostella; 0.8 ppm)	Death rate (%) (Plutella xylostella; 3 ppm)	Percent larvae showing growth reduction (compared to control) (Heliothis virescens; 0.05 ppm) [%]	Percent larvae showing growth reduction (compared to control) (Heliothis virescens; 0.2 ppm) [%]	Percent larvae showing growth reduction (compared to control) (Heliothis virescens; 0.8 ppm) [%]	Percent larvae showing growth reduction (compared to control) (Heliothis virescens; 3 ppm) [%]	mortality at 0.05 ppm (Heliothis virescens) [%]	mortality at 0.2 ppm (Heliothis virescens) [%]	mortality at 0.8 ppm (Heliothis virescens) [%]	mortality at 3 ppm (Heliothis virescens) [%]
Cc1cc(Cl)cc(C(=O)NCC2CCO2)c1NC(=O)c1cc(C(F)(F)F)nn1-c1ncccc1Cl (stereo not shown) [Compound P25, N-(4-chloro-2-methyl-6-[([oxetan-2-ylmethyl]amino)carbonyl]phenyl)-1-(3-chloro-2-pyridinyl)-3-(trifluoromethyl)-1H-pyrazole-5-carboxamide]	> 80	–	–	–	–	–	–	–	–	–	–	–	–	–	–	–
Cc1cccc(C(=O)NCC2CC2)c1NC(=O)c1cc(C(F)(F)F)nn1-c1ncccc1Cl [Compound P41]	–	20	80	100	0	0	80	60	0	45	100	100	0	0	0	0
Cc1cccc(C(=O)NCC2CO2)c1NC(=O)c1cc(C(F)(F)F)nn1-c1ncccc1Cl (stereo not shown) [Comp. 566, reference compound]	–	0	0	0	0	10	5	25	0	0	0	0	0	0	0	0
